From patent US20260009799A1, “CA-IX TARGETING FLUORESCENT PROBES” (BRACCO IMAGING S.P.A., priority 2022, published 2026)

How the values were obtained:
[1] = molecular target: T1, human serum albumin (HSA) (Homo sapiens, UniProt P02768); test: Binding to albumin (ultrafiltration, absorbance of filtrates); type: in vitro ADME; conditions: 4.76 μM probe in PBS, 10 KDa cut off ultrafiltration, 25° C.; read-out: HSA affinity (KA, M^−1) (converted)
T1 construct: purchased Sigma-Aldrich A9511
Experimental: The affinity of the probes for human serum albumin (HSA) was determined to assess the influence of structural features on their albumin binding properties. Briefly, HSA (A9511, Sigma-Aldrich) was prepared in a […] stock solution in PBS and used to obtain a series of dilutions in PBS (0, 9.52·10^−7, 4.76·10^−6, 9.52·10^−6, 1.90·10^−5, 3.81·10^−5, 5.71·10^−5, 9.52·10^−5, 1.43·10^−4, 1.90·10^−4, 2.86·10^−4, 3.81·10^−4 M), in presence of 4.76 μM of the CA-IX-targeting probe (prepared from a 50 μM stock solution in PBS), in a total volume of 0.525 mL. The samples were centrifuged (10000 g for 30 min at 25° C.) in a Microcon device (10 KDa MW cut off, Amicon Ultra-0.5 Centrifugal Filter Unit with Ultracel-10 membrane) and the absorbance measurements of the filtrates were obtained with the spectrophotometer at the maximum absorbance wavelength of the fluorophore.
Data analysis was performed by fitting the raw data, using Microsoft Excel Solver, with the equation:
where ΔA/b=Absorbance measured (b=1 cm), KRL=KA calculated by fitting, Δε·Rt are calculated by fitting, and [L]=HSA concentration. ΔA/b values were experimentally obtained by subtracting the absorbance of “0 HSA sample” to the absorbance of each other sample.

[2] = Optical characterization (excitation/emission maxima, molar extinction coefficient); type: physicochemical; conditions: in water
[3] = tested on: hypoxic HT-29 colorectal tumor, subcutaneously induced; test: In vivo tumor optical imaging (IVIS Spectrum), tumor-to-background ratio; design: species or system mice; conditions: 24 hours after intravenous administration, 1 nmol/mouse, tumor vs hind limb muscle
Experimental: HT-29 cells were collected and washed once with serum-free medium. Five million HT-29 cells were suspended in 0.1 mL serum-free medium and injected subcutaneously in the right flank of 5 weeks old mice. Tumor development was followed by caliper measurement twice a week, from 7 days after inoculation. Tumor volume was calculated according to the formula: (L*W2)/2, where L and W are the maximum length and width of the tumor.
Optical Imaging experiments on HT-29 tumor bearing animals were performed after administration of Reference 1, 2 and 3, and compounds 1 and 2, all at a dose of 1 nmol/mouse in an administration volume of 0.1 mL (corresponding to about 5 mL/kg, considering a 20 g-mouse) at an injection rate of about 1 mL/min, by the IVIS Spectrum system when the tumor reached at least 200 mm^3 volume. For each group, in vivo OI experiments were performed at 0.5, 1, 2, 3, 4, 6 and 24 hours after intravenous administration of the fluorescent compounds. During imaging experiments animals were maintained under gaseous anesthesia. Regions of interest (ROIs) were drawn on the tumor and on a reference background healthy region (hind limb muscle) of the mouse for each fluorescence image at every time point to evaluate signal intensity in the tissues (expressed as Average Radiant Efficiency). The ratio between the fluorescence signal in the tumor and in the background healthy tissue (tumor-to-background ratio, TBR) was then calculated to assess the contrast.
All the compounds of the invention and the References were tested at a dose of 1 nmol/mouse.

[4] = molecular target: recombinant bovine CA-II enzyme (bCAII) (Bos taurus, UniProt P00921); test: Fluorescence-based dansylamide (DNSA) displacement assay on carbonic anhydrase catalytic site; conditions: for KD for bCAII, times lower than corresponding reference compound bearing the same cyanine dye: compound 1 vs Reference 2, compound 2 vs Reference 3
[5] = molecular target: T2, CA-IX expressing HT-29 cells (Homo sapiens, UniProt Q16790); test: Cellular binding assessment by flow cytometry; conditions: for Kd: HT-29 cells, 1 hour 30 min on ice, flow cytometry, read-out: CA-IX receptor affinity (KD, nM to HT-29 cells); for KD to HT-29 cells, fold lower than corresponding Reference compound: compound 1 vs Reference 2, compound 2 vs Reference 3; for KD to HT-29 cells compared with Reference 1 (HF-1): versus Reference 1 (HF-1)
T2 construct: CA-IX, expressed in its physiological environment at the cell-surface; host or cells: HT-29 human colorectal adenocarcinoma cells
Experimental: Human colon adenocarcinoma HT-29 cells (ATCC) used for the cellular binding experiments were cultured in McCoy's 5A medium (Sigma-Aldrich), supplemented with 10% HyClone Fetal Clone III (Euroclone), 2 mM L-glutamine (Sigma-Aldrich), 100 IU/mL penicillin, 0.1 mg/mL streptomycin, 0.25 μg/mL amphotericin B (Antibiotic-Antimycotic solution, Life Technologies) and cells were grown at 37° C. in humidified atmosphere enriched with 5% CO2. DPBS without MgCl2 and CaCl2) (Sigma-Aldrich) was used for cell rinsing.
Indeed, by using the anti-human CA-IX antibody MAB2188 (R&D Systems) and the DAKO […], according to the instruction of the datasheet, HT-29 cells were estimated to express about 150,000 CA-IX molecules per cell. Thus, HT-29 cells were used to measure the binding of all compounds to CA-IX, expressed in its physiological environment at the cell-surface. Briefly, HT-29 cells were detached with StemPro® Accutase® Cell Dissociation Reagent (Life Technologies), collected in DPBS and counted. At least 2·10^5 HT-29 cells were placed in 1.5 mL tubes on ice and resuspended in 50-100 μL of cold FACS buffer (eBioscience™ Flow Cytometry Staining Buffer, Invitrogen) containing scalar concentrations of compounds (HF-1, reference 2, and compound 1: range 0-20 μM; reference 3: range 0-24 μM; compound 2: range 0-10 μM). After incubation (1 hour and 30 min on ice in the dark), cells were rinsed 3 times in 300 μL of cold FACS buffer by centrifugation (5 min, 4° C., 350 RCF), discarding the supernatant. Cell pellets were then resuspended in 200 μL of cold FACS buffer (or in an adequate volume in order to obtain no more than 1000 recorded events per μL during FACS analysis) and analyzed with the flow cytometer Accuri™ C6 (BD Biosciences). The mean cell-associated fluorescence was plotted against concentration and the dissociation constant at equilibrium (KD) was inferred by mathematical fitting with GraphPad Prism v.9 software, according to the following equation: […]
where Bmax is the maximum specific binding in the same units as Y; KD is the equilibrium dissociation constant, in the same units as X; NS is the slope of nonspecific binding in Y units divided by X units; and background is the amount of nonspecific binding with no added Compound.
All compounds were analyzed in at least three independent experiments.

Sequence of recombinant bovine CA-II enzyme (bCAII) (P00921 whole entry): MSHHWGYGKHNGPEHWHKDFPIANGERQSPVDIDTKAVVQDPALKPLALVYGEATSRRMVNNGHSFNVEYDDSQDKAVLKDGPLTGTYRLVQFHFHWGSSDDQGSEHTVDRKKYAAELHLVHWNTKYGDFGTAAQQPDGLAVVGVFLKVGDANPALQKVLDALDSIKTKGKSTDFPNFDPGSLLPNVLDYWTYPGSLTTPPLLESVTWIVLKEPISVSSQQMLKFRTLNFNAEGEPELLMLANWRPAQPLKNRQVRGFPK
T1 sequence (P02768 25-609): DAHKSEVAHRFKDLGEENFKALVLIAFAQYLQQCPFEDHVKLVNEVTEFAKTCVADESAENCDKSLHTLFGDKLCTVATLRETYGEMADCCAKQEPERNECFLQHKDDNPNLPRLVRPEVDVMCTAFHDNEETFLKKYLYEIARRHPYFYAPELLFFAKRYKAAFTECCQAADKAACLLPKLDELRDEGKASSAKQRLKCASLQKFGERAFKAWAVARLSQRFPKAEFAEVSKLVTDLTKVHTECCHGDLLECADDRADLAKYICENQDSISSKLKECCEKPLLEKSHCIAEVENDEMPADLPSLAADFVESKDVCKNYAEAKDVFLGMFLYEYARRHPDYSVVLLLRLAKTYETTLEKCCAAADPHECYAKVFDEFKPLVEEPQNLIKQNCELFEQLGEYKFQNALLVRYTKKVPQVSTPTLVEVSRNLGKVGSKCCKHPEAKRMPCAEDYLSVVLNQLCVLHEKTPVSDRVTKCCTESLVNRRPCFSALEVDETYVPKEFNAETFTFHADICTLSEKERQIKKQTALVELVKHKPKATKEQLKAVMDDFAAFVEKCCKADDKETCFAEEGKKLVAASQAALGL

In the case of `CC1(C)C(/C=C/C2=C(Oc3ccc(S(=O)(=O)O)cc3)C(=C/C=C3/N(CCCCCC(=O)NCCCCCCCC(=O)Nc4nnc(S(N)(=O)=O)s4)c4ccc(C(=O)NC[C@H](O)[C@@H](O)[C@H](O)[C@H](O)CO)cc4C3(C)C)/CCC2)=[N+](CCCCS(=O)(=O)[O-])c2ccc(C(=O)NC[C@H](O)[C@@H](O)[C@H](O)[C@H](O)CO)cc21` [Compound 1], the Kd [1] is reported as 80000 nM, the molar extinction coefficient (ε) [2] is reported as 250000 M⁻¹ cm⁻¹ and the “in vivo TBR (mean ± SD)” value [3] is reported as 5.2 ± 1.0. For the same compound, the Kd [4] was 13.5 ± 1.6 nM, the “KD for bCAII, times lower than corresponding reference compound bearing the same cyanine dye” value [4] was 4 times and the Kd [5] was 174 ± 15 nM. The “KD to HT-29 cells, fold lower than corresponding Reference compound” value [5] was 2 fold and the “KD to HT-29 cells compared with Reference 1 (HF-1)” value [5] was “rather comparable”.
For `CC(CC[N+]1=C(/C=C/C=C/C=C/C=C2/N(CCCCCC(=O)NCCCCCCCC(=O)Nc3nnc(S(N)(=O)=O)s3)c3ccc(C(=O)NC[C@H](O)[C@@H](O)[C@H](O)[C@H](O)CO)cc3C2(C)C)C(C)(C)c2cc(C(=O)NC[C@H](O)[C@@H](O)[C@H](O)[C@H](O)CO)ccc21)S(=O)(=O)[O-]` (stereo partly shown) [Compound 2], the Kd [1] was 105000 nM, the molar extinction coefficient (ε) [2] was 250000 M⁻¹ cm⁻¹ and the “in vivo TBR (mean ± SD)” value [3] was 10.1 ± 3.1. For the same compound, the Kd [4] was 6.1 ± 1.6 nM, the “KD for bCAII, times lower than corresponding reference compound bearing the same cyanine dye” value [4] was 5 times and the Kd [5] was 58 ± 9 nM. The “KD to HT-29 cells, fold lower than corresponding Reference compound” value [5] was “more than 4 fold” and the “KD to HT-29 cells compared with Reference 1 (HF-1)” value [5] was 2 fold.
